Assay results as given in patent EP0377642B1, “HERBICIDES FOR WEED CONTROL IN RICE” (E.I. DU PONT DE NEMOURS AND COMPANY, priority 1987, dated 1989).
Like-named read-outs stand apart in the source and are kept apart here.

Experiments:
Assay type in all cases: in vivo
rice [1] = assay: Effects on rice growth in Thailand, phytotoxicity (Table 4); conditions: 600 GAI/HA, scale 0-10
Source text: (§1) Methyl 2-[[[[(4-methoxy-6-methyl-1,3,5-triazin-2-yl)amino]carbonyl]amino]sulfonyl]benzoate (Compound 1) and mixtures thereof with other compounds were applied as a spray (using a hand sprayer) to rice (either transplanted or direct seeded) in several rice growing areas in Southeast Asia and in the U.S. Tables 1-28 contain the results of these tests and clearly exemplify the utility of this invention. The details of each application are included in the appropriate table. [drawing 2]

rice [2] = assay: Effects on rice growth in Thailand, phytotoxicity (Table 2); conditions: 600 GAI/HA, scale 0-10
Source text: as §1

direct seeded rice = conditions: 1,500 GM.A.I./HA; for PHYTO at 2WAA: scale 0-10
Source text: as §1

Cyperus difformis [3] = assay: Field test applied at 7 DAS in direct seeded rice (Table 11); conditions: 1,500 GM.A.I./HA, scale 0-10
Source text: as §1

Sphenoclea zeylanica [4] = assay: as above; conditions: 1,500 GM.A.I./HA, scale 0-10
Source text: as §1

Sphenoclea zeylanica [5] = assay: Field test applied at 18 DAS in direct seeded rice (Table 12); conditions: 1,500 GM.A.I./HA, scale 0-10
Source text: as §1

FIMBRISTYLIS MILIACEA [6] = assay: as above; conditions: 1,500 GM.A.I./HA, scale 0-10
Source text: as §1

Jussiaea linifolia = assay: as above; conditions: 1,500 GM.A.I./HA, scale 0-10
Source text: as §1

Cyperus iria [7] = assay: as above; conditions: 1,500 GM.A.I./HA, scale 0-10
Source text: as §1

FIMBRISTYLIS MILIACEA [8] = assay: Herbicidal efficacy alone and with 2,4-D in Thailand (Table 3); conditions: 600 GAI/HA, 6 weeks after application
Source text: as §1

Sphenoclea zeylanica [9] = assay: Field test applied at 25 DAS in direct seeded rice (Table 13); conditions: 1,500 GM.A.I./HA, scale 0-10
Source text: as §1

Cyperus iria [10] = assay: as above; conditions: 1,500 GM.A.I./HA, scale 0-10
Source text: as §1

Saggittaria guayanensis = assay: Herbicidal efficacy with 2,4-D in Malaysia (Table 21); conditions: 1000 GAI/HA; 42 days after treatment
Source text: as §1

Masilea crenata = assay: as above; conditions: 1000 GAI/HA; 42 days after treatment
Source text: as §1

FIMBRISTYLIS MILIACEA [11] = assay: as above; conditions: 1000 GAI/HA; 42 days after treatment
Source text: as §1

Ludwigia adscendens = assay: as above; conditions: 1000 GAI/HA; 42 days after treatment
Source text: as §1

Monochoria vaginalis [12] = assay: as above; conditions: 1000 GAI/HA; 42 days after treatment
Source text: as §1

Scirpus spp. = assay: as above; conditions: 1000 GAI/HA; 42 days after treatment
Source text: as §1

Cyperus difformis [13] = assay: Herbicidal efficacy alone and with 2,4-D in Malaysia, applied 30 days after seeding (Table 8); conditions: 22 days after treatment
Source text: as §1

Marsilea crenata = assay: as above; conditions: 22 days after treatment
Source text: as §1

Sphenoclea zeylanica [14] = assay: as above; conditions: 22 days after treatment
Source text: as §1

FIMBRISTYLIS MILIACEA [15] = assay: as above; conditions: 22 days after treatment
Source text: as §1

Scirpus grossus = assay: as above; conditions: 22 days after treatment
Source text: as §1

Monochoria vaginalis [16] = assay: as above; conditions: 22 days after treatment
Source text: as §1

rice [17] = assay: Herbicidal efficacy with Bensulfuron methyl and 2,4-D in Thailand (Table 18); conditions: 1500 GAI/HA; 13 days after treatment
Source text: as §1

Cyperus difformis [18] = assay: as above; conditions: 1500 GAI/HA; 13 days after treatment
Source text: as §1

Sphenoclea zeylanica [19] = assay: as above; conditions: 1500 GAI/HA; 13 days after treatment
Source text: as §1

Ludwigia linifolia [20] = assay: as above; conditions: 1500 GAI/HA; 13 days after treatment
Source text: as §1

rice [21] = assay: Herbicidal efficacy with Bensulfuron methyl and 2,4-D in Thailand (Table 19); conditions: 1500 GAI/HA; 13 days after treatment
Source text: as §1

Sphenoclea zeylanica [22] = assay: as above; conditions: 1500 GAI/HA; 13 days after treatment
Source text: as §1

Ludwigia linifolia [23] = assay: as above; conditions: 1500 GAI/HA; 13 days after treatment
Source text: as §1

Cuperus difformis = assay: as above; conditions: 1500 GAI/HA; 13 days after treatment
Source text: as §1

rice [24] = assay: Herbicidal efficacy with Bensulfuron methyl and 2,4-D in Thailand (Table 20); conditions: 1500 GAI/HA; 14 days after treatment
Source text: as §1

Sphenoclea zeylanica [25] = assay: as above; conditions: 1500 GAI/HA; 14 days after treatment
Source text: as §1

FIMBRISTYLIS MILIACEA [26] = assay: as above; conditions: 1500 GAI/HA; 14 days after treatment
Source text: as §1

Ludwigia linifolia [27] = assay: as above; conditions: 1500 GAI/HA; 14 days after treatment
Source text: as §1

Cuperus iria = assay: as above; conditions: 1500 GAI/HA; 14 days after treatment
Source text: as §1
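Wherever YIELD is given: yield in Tons/ha.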

Q: For O=C([O-])COc1ccc(Cl)cc1Cl.[Na+] [2,4-D (SODIUM SALT), 2,4-dichlorophenoxyacetic acid, sodium salt], which PHYTOTOXICITY (rice [1]; applied 7 DAS) is on record?
A: Its PHYTOTOXICITY is 5.0.

Q: And the PHYTOTOXICITY (rice [1]; applied 14 DAS)?
A: The PHYTOTOXICITY was 3.67.

Q: And the PHYTOTOXICITY (rice [1]; applied 21 DAS)?
A: Its PHYTOTOXICITY is 3.0.

Q: And the PHYTOTOXICITY (rice [1]; applied 28 DAS)?
A: The PHYTOTOXICITY was 1.

Q: And the PHYTOTOXICITY (rice [2]; applied 7 DAS)?
A: The PHYTOTOXICITY was 2.33.

Q: What about the PHYTOTOXICITY (rice [2]; applied 14 DAS) of the same compound?
A: Its PHYTOTOXICITY is 1.33.

Q: What about the PHYTOTOXICITY (rice [2]; applied 21 DAS) of the same compound?
A: The PHYTOTOXICITY was 0.

Q: And the PHYTOTOXICITY (rice [2]; applied 28 DAS)?
A: Its PHYTOTOXICITY is 0.

Q: And the YIELD (direct seeded rice; 7 DAS)?
A: Its YIELD is 4.13 TONS/HA.

Q: And the “PHYTO at 2WAA” value (direct seeded rice; 7 DAS)?
A: Its value is 0.

Q: What about the YIELD (direct seeded rice; 18 DAS) of the same compound?
A: The YIELD was 4.59 TONS/HA.

Q: What about the “PHYTO at 2WAA” value (direct seeded rice; 18 DAS) of the same compound?
A: The value was 0.

Q: What about the “WEED CONTROL at 6 WAA CD” value (Cyperus difformis [3]) of the same compound?
A: The value was 10.

Q: What about the “WEED CONTROL at 6 WAA SZ” value (Sphenoclea zeylanica [4]) of the same compound?
A: The value was 6.0.

Q: And the “WEED CONTROL at 6 WAA SZ” value (Sphenoclea zeylanica [5])?
A: The value was 4.67.

Q: And the “WEED CONTROL at 6 WAA FM” value (FIMBRISTYLIS MILIACEA [6])?
A: Its value is 9.33.

Q: And the “WEED CONTROL at 6 WAA JL” value (Jussiaea linifolia)?
A: Its value is 10.

Q: What about the “WEED CONTROL at 6 WAA CI” value (Cyperus iria [7]) of the same compound?
A: Its value is 9.33.

Q: And the “FIMBRISTYLIS MILIACEA CONTROL” value (FIMBRISTYLIS MILIACEA [8]; applied 7 DAS)?
A: Its value is 96%.

Q: What about the “FIMBRISTYLIS MILIACEA CONTROL” value (FIMBRISTYLIS MILIACEA [8]; applied 14 DAS) of the same compound?
A: The value was 95%.

Q: And the “FIMBRISTYLIS MILIACEA CONTROL” value (FIMBRISTYLIS MILIACEA [8]; applied 21 DAS)?
A: Its value is 93%.

Q: What about the “FIMBRISTYLIS MILIACEA CONTROL” value (FIMBRISTYLIS MILIACEA [8]; applied 28 DAS) of the same compound?
A: The value was 98%.

Q: And the “WEED CONTROL at 6 WAA SZ” value (Sphenoclea zeylanica [9])?
A: Its value is 6.67.

Q: What about the “WEED CONTROL at 6 WAA CI” value (Cyperus iria [10]) of the same compound?
A: Its value is 10.

Q: How did the “% CONTROL OR INJURY SG” value (Saggittaria guayanensis) turn out when O=C(O)COc1ccc(Cl)cc1Cl [2,4-D, 2,4-dichlorophenoxyacetic acid] was run?
A: Its value is 74%.

Q: And the “% CONTROL OR INJURY MC” value (Masilea crenata)?
A: Its value is 56%.

Q: And the “% CONTROL OR INJURY FM” value (FIMBRISTYLIS MILIACEA [11])?
A: Its value is 73%.

Q: And the “% CONTROL OR INJURY LA” value (Ludwigia adscendens)?
A: Its value is 93%.

Q: What about the “% CONTROL OR INJURY MV” value (Monochoria vaginalis [12]) of the same compound?
A: The value was 100%.

Q: And the “% CONTROL OR INJURY SS” value (Scirpus spp.)?
A: Its value is 55%.

Q: What about the “% CONTROL CD” value (Cyperus difformis [13]; 500 GAI/HA) of the same compound?
A: The value was 95%.

Q: And the “% CONTROL CD” value (Cyperus difformis [13]; 1000 GAI/HA)?
A: The value was 100%.

Q: And the “% CONTROL MC” value (Marsilea crenata; 500 GAI/HA)?
A: The value was 0%.

Q: And the “% CONTROL MC” value (Marsilea crenata; 1000 GAI/HA)?
A: Its value is 0%.

Q: What about the “% CONTROL SZ” value (Sphenoclea zeylanica [14]; 500 GAI/HA) of the same compound?
A: Its value is 100%.

Q: And the “% CONTROL SZ” value (Sphenoclea zeylanica [14]; 1000 GAI/HA)?
A: The value was 100%.

Q: What about the “% CONTROL FM” value (FIMBRISTYLIS MILIACEA [15]; 500 GAI/HA) of the same compound?
A: The value was 100%.

Q: What about the “% CONTROL FM” value (FIMBRISTYLIS MILIACEA [15]; 1000 GAI/HA) of the same compound?
A: The value was 100%.

Q: What about the “% CONTROL SG” value (Scirpus grossus; 500 GAI/HA) of the same compound?
A: Its value is 50%.

Q: And the “% CONTROL SG” value (Scirpus grossus; 1000 GAI/HA)?
A: The value was 75%.

Q: What about the “% CONTROL MV” value (Monochoria vaginalis [16]; 500 GAI/HA) of the same compound?
A: The value was 90%.

Q: And the “% CONTROL MV” value (Monochoria vaginalis [16]; 1000 GAI/HA)?
A: The value was 100%.

Q: And the “% CONTROL OR INJURY RICE” value (rice [17])?
A: Its value is 0%.

Q: And the “% CONTROL OR INJURY CD” value (Cyperus difformis [18])?
A: Its value is 100%.

Q: And the “% CONTROL OR INJURY SZ” value (Sphenoclea zeylanica [19])?
A: The value was 90%.

Q: And the “% CONTROL OR INJURY LL” value (Ludwigia linifolia [20])?
A: The value was 100%.

Q: And the “% CONTROL OR INJURY RICE” value (rice [21])?
A: Its value is 0%.

Q: And the “% CONTROL OR INJURY SZ” value (Sphenoclea zeylanica [22])?
A: Its value is 86%.

Q: And the “% CONTROL OR INJURY LL” value (Ludwigia linifolia [23])?
A: The value was 97%.

Q: What about the “% CONTROL OR INJURY CD” value (Cuperus difformis) of the same compound?
A: The value was 100%.

Q: What about the “% CONTROL OR INJURY RICE” value (rice [24]) of the same compound?
A: The value was 0%.

Q: And the “% CONTROL OR INJURY SZ” value (Sphenoclea zeylanica [25])?
A: Its value is 33.3%.

Q: What about the “% CONTROL OR INJURY FM” value (FIMBRISTYLIS MILIACEA [26]) of the same compound?
A: Its value is 100%.

Q: What about the “% CONTROL OR INJURY LL” value (Ludwigia linifolia [27]) of the same compound?
A: Its value is 100%.

Q: And the “% CONTROL OR INJURY CI” value (Cuperus iria)?
A: The value was 100%.
